Measured values: patent US20020168365A1, “Method for modulating granzyme B uptake and for identifying modulators thereof” (priority 2000, published 2002)

Legend:
MPR^− cells = experiment: TUNEL and annexin V apoptosis assays with grB and AD; assay type: cell-based, murine; details: 100 ng/ml grB and AD, 3 hr
Protocol: (§1) For the in vitro killing assays, 10 pfu per cell of replication-deficient adenovirus (AD) were added subsequent to grB addition. Analysis of DNA fragmentation by TUNEL analysis has been described previously (Heibein et al., 1999). TUNEL materials (Roche Diagnostics) were used as per the manufacturer's instructions. Phosphatidylserine externalization was measured as previously described (Heibein et al., 1999) using annexin V-FITC (PharMingen). Percent specific TUNEL/annexin V positive cells was calculated as: [(% positive labeling cells with grB and AD-% positive labeling cells without grB and AD)/(100-% positive labeling cells without grB and AD)]×100.

wild-type L cells = experiment: as above; assay type: cell-based, murine
Protocol: as §1

[1] = system: L cells and the MPR-transfected L cell lines; experiment: GrB binding assay (flow cytometry); design: species or system murine; details: grB treated with alkaline phosphatase in the absence of phosphate
Protocol: (§2) Cells (1-2×10^5) were washed twice and resuspended in buffer before the addition of grB-biotin or -OG in a final volume of 20 μl for a 30-60 min incubation and washed again twice. In the case of grB-biotin, cells were then incubated with streptavidin-cychrome for 20 min and washed twice. Unless otherwise indicated, ˜25 ng grB-biotin or -OG was used to label cells. All steps of the assay were carried out at 4° C. to prevent intracellular uptake of grB. PBS/0.1% BSA buffer was used throughout the procedure. In some cases, results are presented as the relative MFI, which represents the MFI of the grB-labeled population minus the MFI of the unlabeled population.
(§3) GrB was treated for 1 hr at 37° C. in a phosphate-free (saline) or a high-phosphate (64.5 mM Na2HPO4.7H2O, 21 mM KH2PO4) buffer with calf intestinal alkaline phosphatase (1-10 U), 20 nM of the 37 kDa catalytic subunit of recombinant protein phosphatase-1 (Bagu et al, 1997), or with vehicle control. Cells were then incubated with the treated grB at 4° C. for 30-60 min. For the TUNEL or annexin V assays, cells were then washed twice before incubation at 37° C. with AD.

CD-MPR^+ cells [2] = experiment: TUNEL and annexin V apoptosis assays with grB and AD; assay type: cell-based, murine L cells transfected with human CD-MPR; details: 100 ng/ml grB and AD, 3 hr
Protocol: as §1

Jurkat cells [3] = experiment: GrB binding assay (flow cytometry, labeled grB at 4° C.); design: species or system human
Protocol: as §2, §3
(§4) M6P and various other monosaccharides at different concentrations were added to cells for 15 min at 4° C. before the addition of labeled grB, or at room temperature before the addition of grB and AD.
(§5) GrB was incubated with sCI-MPR at various concentrations in PBS/0.1% BSA for 30 min at 4° C. Subsequently, cells were incubated with grB/sCI-MPR for 30-60 min at 4° C. and washed twice, before analysis of binding, or before the addition of AD for TUNEL and annexin V analysis.

Jurkat cells [4] = experiment: TUNEL and annexin V apoptosis assays with grB and AD; assay type: cell-based, human
Protocol: as §3, §4, §5, §1
Cells were resuspended at 10^6 cells/ml in 0.1% BSA/DMEM. Adenovirus (10 PFU/cell) and granzyme B (grB) were added directly to the cell suspension. Cells were incubated at 37° C. for 3 h. For staurosporine killing, cells were resuspended at 10^6 cells/ml in their normal growth medium and staurosporine (2.5 μM) was added directly to the cell suspension. Cells were incubated at 37° C. for 2, 4 and 8 h.
(§6) DNA fragmentation was monitored by flow cytometric analysis via the terminal deoxynucleotidyltransferase-mediated dUTP-biotin nick end labeling (TUNEL) method. Flow cytometric analysis was performed on a Becton Dickinson FACScanθ flow cytometer equipped with an argon-ion laser with 15 mW of excitation at 488 nm. Emission wavelengths were detected through the FL1 channel. Data were acquired on 10,000 cells per sample with light scatter signals at linear gain and fluorescence signals at logarithmic gain. Percent specific TUNEL positive cells was calculated as follows: [(% positive labeling cells with grB and AD−% positive labeling cells without grB and AD)/(AD−% positive labeling cells without grB and AD)]×100.
as §6, with “Phosphatidylserine externalization” for “DNA fragmentation”, “monitored using the ApoAlertθ annexin V apoptosis kit (Clontech) according to the protocol provided” for “monitored”, “by” for “by flow cytometric analysis via”, “manufacturer.” for “terminal deoxynucleotidyltransferase-mediated dUTP-biotin nick end labeling (TUNEL) method.”, “Annexin V” for “TUNEL”

CD-MPR^+ cells [5] = experiment: GrB uptake (unpublished findings); assay type: cell-based, murine L cells transfected with human CD-MPR; details: CD-MPR-overexpressing CD-MPR^+ cells
CI-MPR^+ cells = experiment: TUNEL and annexin V apoptosis assays with grB and AD; assay type: cell-based, murine L cells transfected with human CI-MPR
Protocol: as §1

[6] = grB enzymatic activity (ASPase assay); assay type: biochemical, human
Excerpt: Human grB was purified from the cytolytic granules of YT-Indy cells as described previously (Caputo et al., 1999). GrB was derivatized with sulfo-NHS-biotin (Pierce) or OG 488 (Molecular Probes) as per the manufacturer's directions for labeling protein. Derivatized grB was separated from unbound probe by passing the material through a Sephadex G-25 column (HiTrapθ Desalting column, Pharmacia Biotech) with saline or phosphate-buffered saline (PBS) as the buffer. Typically the concentration of unlabeled grB was ˜50 μg/ml, whereas the estimated concentration of derivatized material was ˜5 μg/ml. GrB was assayed for enzymatic activity using an ASPase assay as previously described (Caputo et al., 1993).

[7] = at later times (data not shown)
[8] = at the time-point of the assay (3 hr)
[9] = grB treated with catalytic subunit of protein phosphatase-1 (data not shown)

## grB: Human serine proteinase granzyme B purified from the cytolytic granules of YT-Indy cells
MPR^− cells
  grB and AD-induced DNA fragmentation: relatively resistant
wild-type L cells; [7]
  TUNEL and annexin V positive cells: ~100%
wild-type L cells; [8]
  TUNEL and annexin V positive cells: about 30%
[1]
  binding to L cells and the MPR-transfected L cell lines: dramatic decrease in binding
CD-MPR^+ cells [2]
  annexin V binding after grB and AD: did not bind annexin V
  grB and AD-mediated DNA fragmentation: resistant
Jurkat cells [3]; [9]
  ability to bind Jurkat cells: did not lose
Jurkat cells [3]; grB-biotin treated with alkaline phosphatase in phosphate-free buffer
  ability to bind Jurkat cells: marked reduction
Jurkat cells [4]; Jurkat cells incubated with only grB (no AD)
  percentage of TUNEL/annexin V positive cells: under 8%
Jurkat cells [4]; Jurkat cells, 3 hr, varying concentrations of grB and AD (Example 2)
  TUNEL and annexin V labeling: significant TUNEL and annexin V labeling
Jurkat cells [4]; [9]
  ability to induce apoptosis of Jurkat cells: did not lose
Jurkat cells [4]; granule-purified grB with AD (FIG. 3C)
  concentration sufficient to elicit effective Jurkat cell killing: less than 1 ng/ml
CD-MPR^+ cells [5]
  grB uptake: essentially no grB uptake
CI-MPR^+ cells; [7]
  TUNEL and annexin V positive cells: ~100%
CI-MPR^+ cells; [8]
  TUNEL and annexin V positive cells: about 30%
[6]; [9]
  enzymatic activity of grB: did not lose
[6]; grB treated with phosphatase in a phosphate-free buffer
  enzymatic activity of grB: no effect
